{"source": "patent US20250115596A1", "about": "“ESTERS OF 8-METHYL-8-AZABICYCLO[3.2.1] OCTAN-3-YL 3-HYDROXY-2-PHENYLPROPANOATE” (ADS Therapeutics LLC, priority 2022, published 2025)", "key": {"Dutch Belted rabbits": {"test_system": "Dutch Belted rabbits", "assay": "In vivo pharmacology study: pupil size after topical ocular instillation of eye drop formulation", "conditions": "for pupil size change from baseline: female Dutch Belted rabbits; for retention of pupil dilation during the measurement period: measured up to 24 hour after dosing", "method": "The test compound was administered to each animal by topical ocular instillation of 40 μL of eye drop formulation just once at day 1. The pupil size of both eyes of all animals were measured at baseline (30 minutes before dosing), 0.5 hour, 1 hour, 2 hour, 4 hour, 6 hour, 8 hour, 12 hour, and 24 hour after dosing. Pupil sizes were measured in both eyes of all animals on 3 separate days during acclimation prior to dosing initiation. Set the light intensity in the procedure room so that the animal's pupil size was about 6-7 mm. Light intensity of the procedure room for pupil size measurement should be maintained constant throughout the pupil size measurement procedures in the study. Pupil size change from baseline was calculated for each eye of each individual animal separately for each postdose timepoint. Mean and standard error of pupil size change from baseline were calculated for each group per postdose timepoint and plotted mean of pupil change from baseline against timepoint comparisons."}, "physchem": {"assay": "physchem", "conditions": "organic solvent or mixture, thermodynamic from solid"}, "[1]": {"conditions": "0.4% formulation in F6H8, single 40 μL eye drop"}}, "note": "Counter-ions that a name gives are not always drawn."}
{"smiles": "CCCCCCCC/C=C\\CCCCCCCC(=O)OCC(C(=O)O[C@H]1C[C@H]2CC[C@@H](C1)N2C)c1ccccc1", "note": "(stereo partly drawn) [Compound 1, 3-(((1R,3r,5S)-8-methyl-8-azabicyclo[3.2.1]octan-3-yl)oxy)-3-oxo-2-phenylpropyl (9Z)-octadec-9-enoate]", "values": [{"measurement": "pupil size change from baseline", "setting": "Dutch Belted rabbits; [1]", "result": "comparable pupil size dilation as the 0.01% atropine sulfate monohydrate"}, {"measurement": "retention of pupil dilation during the measurement period", "setting": "Dutch Belted rabbits; [1]", "result": "retained the pupil dilation throughout the measurement period"}, {"measurement": "solubility at 30 min", "setting": "physchem", "result": 5000, "unit": "µg/mL"}]}
{"smiles": "CCCCC/C=C\\C/C=C\\CCCCCCCC(=O)OCC(C(=O)O[C@H]1C[C@H]2CC[C@@H](C1)N2C)c1ccccc1", "note": "(stereo partly drawn) [Compound 2, 3-(((1R,3r,5S)-8-methyl-8-azabicyclo[3.2.1]octan-3-yl)oxy)-3-oxo-2-phenylpropyl (9Z,12Z)-octadeca-9,12-dienoate]", "values": [{"measurement": "pupil size change from baseline", "setting": "Dutch Belted rabbits; [1]", "result": "over 10%"}, {"measurement": "retention of pupil dilation during the measurement period", "setting": "Dutch Belted rabbits; [1]", "result": "remained significantly dilated from baseline during the measurement period"}, {"measurement": "solubility at 30 min", "setting": "physchem", "result": 3870, "unit": "µg/mL"}]}
{"smiles": "CCCCCCCCCCCCCCCC(=O)OCC(C(=O)O[C@H]1C[C@H]2CC[C@@H](C1)N2C)c1ccccc1", "note": "(some centres unmarked) [Compound 7, atropine palmitate]", "values": [{"measurement": "solubility at 30 min", "setting": "physchem", "result": 5610, "unit": "µg/mL"}]}
{"smiles": "CCCCCC=CCCC(=O)OCC(C(=O)O[C@H]1C[C@H]2CC[C@@H](C1)N2C)c1ccccc1", "note": "(some centres unmarked) [Compound 13, atropine dec-4-enoate]", "values": [{"measurement": "solubility at 30 min", "setting": "physchem", "result": 4900, "unit": "µg/mL"}]}
{"smiles": "CN1[C@@H]2CC[C@H]1C[C@@H](OC(=O)C(CO)c1ccccc1)C2", "note": "(some centres unmarked) [atropine sulfate monohydrate, reference compound]", "values": [{"measurement": "pupil size change from baseline", "setting": "Dutch Belted rabbits; 0.01% in normal saline, single 40 μL eye drop, 1 hour or 2 hour post-dose", "result": "about 5%"}]}
{"smiles": "CC(C)CCC[C@@H](C)[C@H]1CC[C@H]2[C@@H]3CC=C4C[C@@H](O)CC[C@]4(C)[C@H]3CC[C@]12C", "note": "[cholesterol, reference compound]", "values": [{"measurement": "solubility at 30 min", "setting": "physchem; perfluorohexyloctane (F6H8)", "result": 79.7, "unit": "µg/mL"}]}
{"smiles": "CCCCCCCCCCCCCCCCCC(=O)O[C@H]1CC[C@@]2(C)C(=CC[C@H]3[C@@H]4CC[C@H]([C@H](C)CCCC(C)C)[C@@]4(C)CC[C@@H]32)C1", "note": "[cholesteryl stearate, reference compound]", "values": [{"measurement": "solubility at 30 min", "setting": "physchem", "result": 26.2, "unit": "µg/mL"}]}
